Data reported in US20240025903A1, “Bicyclic Compounds and Uses Thereof for the Treatment of Diseases” (Athira Pharma, Inc., priority 2020, published 2024).

Tests used:
[1] = Oral availability calculation; format: in vivo, Sprague-Dawley rats; conditions: both sexes, Sprague-Dawley, plasma; rat, dose corrected AUC PO / dose corrected AUC IV x 100
Text: Oral bioavailability is critical to developing small molecule therapeutics for oral administration. Calculations of oral bioavailability (% F) are accomplished by comparing in vivo pharmacokinetic data (Example B7) using IV dosing as the maximum possible exposure and determining the exposure rate after PO administration. In these studies, dose corrected AUC from PO administration was divided by dose corrected AUC from IV administration and multiplied by 100 to yield the % F. Results are shown in Table 9.

[2] = In vitro stability in simulated gastric and intestinal fluids; format: in vitro ADME; conditions: 37° C.; for SGF + Enz (compound remaining after 4 hours): SGF with 3.2 mg/ml pepsin; for SGF + Enz (compound remaining after 4 hours) / SIF (compound remaining after 4 hours): 5 μM; for SGF (compound remaining after 4 hours): simulated gastric fluid pH 1.2, 5 μM; for SIF (compound remaining after 4 hours): simulated intestinal fluid pH 6.8 with 10 mg/ml pancreatin
Protocol: Bioavailability can be estimated by compound stability when exposed to conditions in the body. As an initial assessment of stability properties in a variety of conditions present in animals, exemplary compounds were tested for stability in a battery of simulated body compartments. Compounds were tested for stability in the following solutions: simulated gastric fluid (SGF: 34.2 mM NaCl, pH 1.2), simulated gastric fluid with the digestive enzyme pepsin (SGF+Enzyme: SGF with 3.2 mg/ml pepsin), simulated intestinal fluid with the mixture of enzymes in porcine pancreatin (SIF+Enzyme: 28.7 mM NaH2PO4, 105.7 mM NaCl, pH 6.8, 10 mg/ml pancreatin), rat plasma, and human plasma.
Test compounds were incubated at a final concentration of 5 μM in the above solutions at 37° C. with samples removed at the following time points: 0, 1, 2, and 4 hours. Reactions were stopped and prepared for quantification by addition of excess quench solution containing an internal standard (acetonitrile, 200 ng/mL bucetin). Test compound and internal standard in each sample was quantified by LC-MS/MS, and after internal normalization to bucetin, test compound concentration was expressed as a percentage of concentration at the 0-hour time point. Stability in the relevant test solution was then determined by the percent remaining at the 4-hour time point.

HGF/MET system = molecular target: T1, HGF/MET system (Homo sapiens, UniProt P08581+P14210); test: Phospho-MET ELISA; format: cell-based; conditions: HEK293 cells, 1 ng/mL recombinant HGF, 15 minutes, pMET ELISA
T1 construct: HEK293 cells were prepared by passage into 6-well multi-plates; endogenous in cells; host or cells: HEK293
Outline: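 Serum-starved (≥8 h) HEK293 cells treated with compound plus 1 ng/mL recombinant HGF for 15 min at 37° C in triplicate, then lysed in RIPA. Equal protein (50–100 μg, BCA-normalized) run in pMET sandwich ELISA, A450 read. Responses scaled 1–10 between 1 ng/mL and 10 ng/mL HGF means, using peak efficacy.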

MDCK cells = test: Cell scattering behavior assay; format: cell-based; conditions: 5 ng/mL HGF, 24 hours, normalized particle count vs HGF alone
Outline: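 MDCK cells starved 2 h in serum-free DMEM, then treated 24 h at 37 °C with compounds plus 5 ng/mL HGF. Cells were ethanol-fixed, WGA488-stained and imaged. Scattering was scored as particle count normalized to stained area, with activity taken as a statistical increase in normalized particle count over HGF alone.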

T1 sequence (P08581 308-1390 limits assumed): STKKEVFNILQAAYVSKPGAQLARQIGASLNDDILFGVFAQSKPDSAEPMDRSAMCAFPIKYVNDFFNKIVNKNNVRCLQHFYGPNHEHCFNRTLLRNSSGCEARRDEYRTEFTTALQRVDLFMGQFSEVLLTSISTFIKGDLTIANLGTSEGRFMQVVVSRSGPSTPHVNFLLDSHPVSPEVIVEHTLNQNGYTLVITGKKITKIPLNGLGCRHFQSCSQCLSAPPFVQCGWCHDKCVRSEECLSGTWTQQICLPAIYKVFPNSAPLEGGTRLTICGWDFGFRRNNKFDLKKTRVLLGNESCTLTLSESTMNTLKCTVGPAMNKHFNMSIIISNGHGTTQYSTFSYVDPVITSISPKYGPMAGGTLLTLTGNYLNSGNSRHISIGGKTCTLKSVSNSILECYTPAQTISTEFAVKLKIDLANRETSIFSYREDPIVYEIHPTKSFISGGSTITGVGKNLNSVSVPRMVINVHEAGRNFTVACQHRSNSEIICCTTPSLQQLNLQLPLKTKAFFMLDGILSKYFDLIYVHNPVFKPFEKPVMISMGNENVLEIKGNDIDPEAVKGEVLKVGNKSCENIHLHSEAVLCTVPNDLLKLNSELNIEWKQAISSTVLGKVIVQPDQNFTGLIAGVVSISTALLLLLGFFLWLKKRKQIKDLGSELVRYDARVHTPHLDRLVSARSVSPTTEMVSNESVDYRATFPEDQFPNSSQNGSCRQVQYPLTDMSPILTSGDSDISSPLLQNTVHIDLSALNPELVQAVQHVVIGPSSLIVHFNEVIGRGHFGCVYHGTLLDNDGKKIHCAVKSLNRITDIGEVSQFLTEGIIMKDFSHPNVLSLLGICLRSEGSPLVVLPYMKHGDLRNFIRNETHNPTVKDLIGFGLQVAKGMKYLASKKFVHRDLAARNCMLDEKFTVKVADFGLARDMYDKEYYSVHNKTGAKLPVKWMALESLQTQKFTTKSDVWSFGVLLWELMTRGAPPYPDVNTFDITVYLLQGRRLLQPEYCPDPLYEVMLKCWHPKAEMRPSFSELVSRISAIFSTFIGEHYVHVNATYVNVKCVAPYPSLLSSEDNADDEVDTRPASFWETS
T1 sequence (P14210 32-494 limits assumed): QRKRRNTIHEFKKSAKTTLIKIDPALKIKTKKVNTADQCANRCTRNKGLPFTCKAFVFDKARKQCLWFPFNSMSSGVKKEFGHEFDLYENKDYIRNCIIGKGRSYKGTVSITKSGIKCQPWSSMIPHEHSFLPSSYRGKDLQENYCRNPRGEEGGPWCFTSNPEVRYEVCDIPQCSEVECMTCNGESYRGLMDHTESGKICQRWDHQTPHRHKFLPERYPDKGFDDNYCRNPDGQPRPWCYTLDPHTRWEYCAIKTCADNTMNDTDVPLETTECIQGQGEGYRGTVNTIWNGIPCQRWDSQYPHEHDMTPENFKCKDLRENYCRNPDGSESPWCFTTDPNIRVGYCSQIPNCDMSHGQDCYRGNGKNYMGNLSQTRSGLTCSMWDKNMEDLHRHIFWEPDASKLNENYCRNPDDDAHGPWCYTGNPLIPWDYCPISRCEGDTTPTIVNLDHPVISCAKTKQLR

Q: What does the source list for `CCC(C)CN1CC2N(C(=O)c3ccc(C(F)(F)F)c(Cl)c3)CCC(=O)N2C(C)C1=O` (stereo not drawn) [Compound 12, 1-(3-chloro-4-(trifluoromethyl)benzoyl)-6-methyl-8-(2-methylbutyl)hexahydro-4H-pyrazino[1,2-a]pyrimidine-4,7(6H)-dione]?
A: bioavailability [1]: 25 to 50%; SGF + Enz (compound remaining after 4 hours) [2]: +++ (+++ indicates 80-99% compound remaining after 4 hours); SGF (compound remaining after 4 hours) [2]: +++ (+++ indicates 80-99% compound remaining after 4 hours); SIF (compound remaining after 4 hours) [2]: ++ (++ indicates 40-79% compound remaining after 4 hours); Potency (augmentation of MET phosphorylation) (HGF/MET system): ++ (++ indicates maximum potency at or above 10 nM); Potency (cell scattering) (MDCK cells): ++ (++ indicates maximum potency at or above 10 nM)

Q: For `C=CCCN1CC2N(C(=O)c3ccc(C(F)(F)F)cc3)CCC(=O)N2C(C)C1=O` (stereo not drawn) [Compound 22], which bioavailability [1] is on record?
A: 25 to 50%

Q: What about the “SGF + Enz (compound remaining after 4 hours)” value [2] of the same compound?
A: +++ (+++ indicates 80-99% compound remaining after 4 hours)

Q: What about the “SGF (compound remaining after 4 hours)” value [2] of the same compound?
A: +++ (+++ indicates 80-99% compound remaining after 4 hours)

Q: And the “SIF (compound remaining after 4 hours)” value [2]?
A: +++ (+++ indicates 80-99% compound remaining after 4 hours)

Q: And the “Potency (augmentation of MET phosphorylation)” value (HGF/MET system)?
A: +++ (+++ indicates maximum potency at or above 1 nM)

Q: And the “Potency (cell scattering)” value (MDCK cells)?
A: ++ (++ indicates maximum potency at or above 10 nM)

Q: Which bioavailability [1] does the source give for `CCC(C)CN1CC2N(C(=O)c3ccc(OC(F)F)cc3)CCC(=O)N2[C@@H](C)C1=O` (stereo partly drawn) [Compound 2a] here?
A: 25 to 50%

Q: And the “SGF + Enz (compound remaining after 4 hours)” value [2]?
A: +++ (+++ indicates 80-99% compound remaining after 4 hours)

Q: And the “SGF (compound remaining after 4 hours)” value [2]?
A: ++++ (++++ indicates 100% compound remaining after 4 hours)

Q: And the “SIF (compound remaining after 4 hours)” value [2]?
A: ++++ (++++ indicates 100% compound remaining after 4 hours)

Q: What about the “Potency (augmentation of MET phosphorylation)” value (HGF/MET system) of the same compound?
A: ++ (++ indicates maximum potency at or above 10 nM)

Q: What about the “Potency (cell scattering)” value (MDCK cells) of the same compound?
A: + (+ indicates maximum potency at or above 100 nM)
